The source of these data is patent US20230159510A1, “NOVEL PRMT5 INHIBITORS” (AMGEN INC., priority 2020, published 2023).

In experiment [1] the test system is HCT116 MTAP null cells. Description: HCT116 proliferation assay, MTAP null cells (CellTiter-Glo, 6 days). Particulars: HCT116-MTAP null, 144 h, read-out: Protif_ HCT116-MTAP null IC50. Format: cell-based. In outline:
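Readout is CellTiter-Glo luminescence after 6 days of drug exposure at 37 °C. Compounds tested as 8–9 point, 3-fold dilution series starting at 1 or 10 µM, versus DMSO only, on cells in RPMI 1640 with 10% FBS.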
(In general: Cellular ATP, detected with luciferase, serves as a proxy for viable cell number.)

In experiment [2] the target is PRMT5/MEP50 (Homo sapiens, UniProt O14744). Description: MTase-Glo methyl transferase assay, Method B (FL-Histone H2A, 1 µM MTA, 1 h pre-incubation). On the set-up: purchased Reaction Biology Corp RD-11-292. Format: biochemical. The following applies: read-out: PRMT5 MTase Glo Ki (nM, Meth. B). How it is done:
Method B: The PRMT5 inhibitory activity of test compounds was determined using the MTase-Glo™ assay (Promega), which monitors the product (S-adenosyl homocysteine or SAH) of methyltransferase reactions. The PRMT5 MTase-Glo assay was conducted in a 384-well white ProxiPlate (PerkinElmer) in a total volume of 16 µL. The PRMT5 enzymatic reaction (in 8 µL) contained 4 nM PRMT5/MEP50 (Reaction Biology Corp, catalog no.: RD-11-292), 5 µM S-adenosyl methionine (SAM, Promega), 2.5 µM FL-Histone H2A (BPS Bioscience, catalog no.: 52021), 1 µM 5′-methylthioadenosine (MTA, Sigma) and ½ log serially diluted compounds in a reaction buffer of 50 mM Tris (pH 8.0), 50 mM NaCl, 0.01% Tween 20, 0.01% BSA, and 1 mM TCEP. Test compounds were pre-incubated with PRMT5/MEP50, SAM, and MTA for 1 hour before addition of FL-Histone H2A to initiate the PRMT5 reaction. The reaction was allowed to proceed for 20 hours at room temperature and was then terminated by addition of 1 µL of 9X MTase-Glo™ Reagent (Promega). After a 30-minute incubation at room temperature, 8 µL of MTase-Glo™ Detection Solution (Promega) was added and the plate was incubated at room temperature for an additional 30 minutes. The light signal corresponding to the amount of SAH produced by the PRMT5 reaction was subsequently measured using an Envision multimode reader (PerkinElmer). IC50 and KI values were obtained by analyzing dose-response curves using GraphPad Prism®.

The structures appear in SMILES notation.

PRMT5/MEP50, sequence (O14744 2-637 limits assumed): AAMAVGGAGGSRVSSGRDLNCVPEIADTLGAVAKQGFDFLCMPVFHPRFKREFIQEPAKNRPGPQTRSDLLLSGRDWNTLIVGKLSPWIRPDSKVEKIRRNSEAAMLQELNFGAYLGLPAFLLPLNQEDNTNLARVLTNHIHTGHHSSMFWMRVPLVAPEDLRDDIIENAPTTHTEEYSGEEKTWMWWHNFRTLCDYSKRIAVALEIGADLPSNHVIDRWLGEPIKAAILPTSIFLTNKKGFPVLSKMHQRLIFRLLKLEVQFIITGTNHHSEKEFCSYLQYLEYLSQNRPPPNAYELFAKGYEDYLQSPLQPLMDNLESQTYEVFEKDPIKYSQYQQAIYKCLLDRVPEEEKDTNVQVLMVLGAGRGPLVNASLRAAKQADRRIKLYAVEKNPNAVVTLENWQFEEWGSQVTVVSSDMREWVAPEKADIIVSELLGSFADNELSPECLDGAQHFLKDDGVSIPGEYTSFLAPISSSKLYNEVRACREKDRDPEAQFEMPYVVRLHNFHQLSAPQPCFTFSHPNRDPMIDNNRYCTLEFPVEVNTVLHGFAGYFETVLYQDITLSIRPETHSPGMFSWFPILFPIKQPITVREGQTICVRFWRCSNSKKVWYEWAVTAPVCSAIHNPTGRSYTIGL
PRMT5/MEP50, sequence (Q9BQA1 2-342 partner limits assumed): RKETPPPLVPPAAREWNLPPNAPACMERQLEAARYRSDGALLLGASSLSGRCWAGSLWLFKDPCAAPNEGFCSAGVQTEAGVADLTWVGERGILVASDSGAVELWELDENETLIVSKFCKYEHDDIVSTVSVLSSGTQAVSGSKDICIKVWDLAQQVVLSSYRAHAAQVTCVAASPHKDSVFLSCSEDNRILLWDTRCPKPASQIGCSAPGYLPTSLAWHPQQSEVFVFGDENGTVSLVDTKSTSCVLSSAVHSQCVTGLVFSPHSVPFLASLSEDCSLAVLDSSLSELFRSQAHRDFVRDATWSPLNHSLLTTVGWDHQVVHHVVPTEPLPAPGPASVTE

As to `Cc1cc2cc(C(=O)N(Cc3ccc(C(F)(F)F)cn3)C3CCCc4c[nH]nc43)ccc2nc1N` (stereo not drawn) [Example 631, 2-amino-3-methyl-N-(4,5,6,7-tetrahydro-2H-indazol-7-yl)-N-[[5-(trifluoromethyl)-2-pyridyl]methyl] quinoline-6-carboxamide], in experiment [1], the IC50 was 28 nM. The Ki in experiment [2] stood at 7.14 nM.

For the compound `Cc1cc2cc(C(=O)N(Cc3cccc(-n4cncn4)c3)Cc3ccc(C(F)(F)F)cn3)ccc2nc1N` [Example 649, 2-amino-3-methyl-N-[[3-(1,2,4-triazol-1-yl)phenyl]methyl]-N-[[5-(trifluoromethyl)-2-pyridyl]methyl] quinoline-6-carboxamide], in experiment [1], the IC50 is 310 nM. Further, the Ki in experiment [2] stood at 2.69 nM.

For `Cc1cc2cc(C(=O)N(Cc3ccc(C(F)(F)F)cn3)CC3CCCC(O)C3)ccc2nc1N` (stereo not drawn) [Example 678, 2-amino-N-[(3-hydroxycyclohexyl)methyl]-3-methyl-N-[[5-(trifluoromethyl)-2-pyridyl]methyl] quinoline-6-carboxamide], the IC50 in experiment [1] worked out at 500 nM. For the same compound, the Ki in experiment [2] was found to be 5.57 nM.

In the case of `Cc1cc2cc(C(=O)N(Cc3cccc(-n4ccnc4)c3)Cc3ccc(C(F)(F)F)cn3)ccc2nc1N` [Example 648, 2-amino-N-[(3-imidazol-1-ylphenyl)methyl]-3-methyl-N-[[5-(trifluoromethyl)-2-pyridyl]methyl] quinoline-6-carboxamide], the IC50 in experiment [1] is 180 nM. Further, the Ki in experiment [2] stood at 1.68 nM.

For the compound `CCC(C1CCOCC1)N(Cc1ccc(C(F)(F)F)cn1)C(=O)c1ccc2nc(N)c(C)cc2c1` (stereo not drawn) [Example 681, 2-amino-3-methyl-N-(1-tetrahydropyran-4-ylpropyl)-N-[[5-(trifluoromethyl)-2-pyridyl]methyl] quinoline-6-carboxamide], the half-maximal inhibitory concentration (IC50) in experiment [1] came to 240 nM. For the same compound, in experiment [2], the Ki amounted to 4.87 nM.

Consider `Cc1cc2cc(C(=O)N(Cc3cccc(-c4ncc[nH]4)c3)Cc3ccc(C(F)(F)F)cn3)ccc2nc1N` [Example 650, 2-amino-N-[ [3-(1 H-imidazol-2-yl)phenyl]methyl] -3-methyl-N-[ [5-(trifluoromethyl)-2-pyridyl]methyl] quinoline-6-carboxamide], for which the IC50 in experiment [1] worked out at 370 nM. Besides, the Ki in experiment [2] was 2.21 nM.

Regarding `Cc1cc2cc(C(=O)N(Cc3ccc(C(F)(F)F)cn3)C3Cc4ccccc4C3O)ccc2nc1N` (stereo not drawn) [Example 674, 2-amino-N-(1-hydroxyindan-2-yl)-3-methyl-N-[[5-(trifluoromethyl)-2-pyridyl]methyl] quinoline-6-carboxamide], the IC50 in experiment [1] worked out at 510 nM. Also, in experiment [2], the Ki was 15.3 nM.

For `Cc1cc2cc(C(=O)N(Cc3ncccc3Br)CC(C)C)ccc2nc1N` [Example 640, 2-amino-N-[(3-bromo-2-pyridyl)methyl] -N-isobutyl-3-methylquinoline-6-carboxamide], the IC50 in experiment [1] was determined as 730 nM. Moreover, in experiment [2], the Ki was determined as 14.1 nM.

As for `Cc1cc2cc(C(=O)N(Cc3ccc(O)cc3)Cc3ccnc4[nH]ccc34)ccc2nc1N` [Example 688, 2-amino-N-[(4-hydroxyphenyl)methyl]-3-methyl-N-(1H-pyrrolo[2,3-b]pyridin-4-ylmethyl)quinoline-6-carboxamide], the IC50 in experiment [1] worked out at 240 nM. Also, the Ki in experiment [2] stood at 1.41 nM.

For the compound `COc1ccnc2c1CCCC2N(Cc1ccc(C(F)(F)F)cn1)C(=O)c1ccc2nc(N)c(C)cc2c1` (stereo not drawn) [Example 666, 2-amino-N-(4-methoxy-5,6,7,8-tetrahydroquinolin-8-yl)-3-methyl-N-[[5-(trifluoromethyl)-2-pyridyl]methyl] quinoline-6-carboxamide], the IC50 in experiment [1] was 41 nM. Besides, in experiment [2], the Ki was found to be 3.93 nM.

In the case of `COc1cccc2c1OCCC2N(Cc1ccc(C(F)(F)F)cn1)C(=O)c1ccc2nc(N)c(C)cc2c1` (stereo not drawn) [Example 630, 2-amino-N-(8-methoxychroman-4-yl)-3-methyl-N-[[5-(trifluoromethyl)-2-pyridyl]methyl] quinoline-6-carboxamide], in experiment [1], the IC50 is 33 nM. Further, the Ki in experiment [2] came to 4.58 nM.

In the case of `Cc1cc2cc(C(=O)N(Cc3ccc(C(F)(F)F)cn3)C3CCCC4OCCC43)ccc2nc1N` (stereo not drawn) [Example 633, N-(2,3,3a,4,5,6,7,7a-octahydrobenzofuran-4-yl)-2-amino-3-methyl-N-[[5-(trifluoromethyl)-2-pyridyl]methyl] quinoline-6-carboxamide], in experiment [1], the IC50 amounted to 330 nM. Also, the Ki in experiment [2] stood at 4.8 nM.

Turning to `Cc1cc2cc(C(=O)N(Cc3ccc(C(F)(F)F)cn3)C(C)CC3CC3)ccc2nc1N` (stereo not drawn) [Example 696, 2-amino-N-(2-cyclopropyl-1-methylethyl)-3-methyl-N-[[5-(trifluoromethyl)-2-pyridyl]methyl] quinoline-6-carboxamide], the IC50 in experiment [1] was 200 nM. Further, the Ki in experiment [2] is 2.19 nM.

With `C#CCN(Cc1ccc(C(F)(F)F)cn1)C(=O)c1ccc2nc(N)c(C)cc2c1` [Example 655, 2-amino-3-methyl-N-prop-2-ynyl-N-[[5-(trifluoromethyl)-2-pyridyl]methyl] quinoline-6-carboxamide], the IC50 in experiment [1] was 550 nM. Moreover, the Ki in experiment [2] fell in the range of 4 to 9 nM.

On to `Cc1cc2cc(C(=O)N(Cc3ccc4c(c3)CNC4=O)Cc3ccc(C(F)(F)F)cn3)ccc2nc1N` [Example 636, 2-amino-3-methyl-N-[(1-oxoisoindolin-5-yl)methyl]-N-[[5-(trifluoromethyl)-2-pyridyl]methyl] quinoline-6-carboxamide], for which the IC50 in experiment [1] amounted to 890 nM. Also, the Ki in experiment [2] is 2.3 nM.

Turning to `Cc1cc2cc(C(=O)N(CCC3CC3)Cc3ccc(C(F)(F)F)cn3)ccc2nc1N` [Example 695, 2-amino-N-(2-cyclopropylethyl)-3-methyl-N-[[5-(trifluoromethyl)-2-pyridyl]methyl] quinoline-6-carboxamide], in experiment [1], the IC50 amounted to 760 nM. Further, the Ki in experiment [2] is 6.3 nM.

Turning to `Cc1cc2cc(C(=O)N(Cc3ccc(C(F)(F)F)cn3)C(C)C(C)C)ccc2nc1N` (stereo not drawn) [Example 642, 2-amino-N-(1,2-dimethylpropyl)-3-methyl-N-[[5-(trifluoromethyl)-2-pyridyl]methyl] quinoline-6-carboxamide], the IC50 in experiment [1] stood at 86 nM. The inhibitory constant (Ki) in experiment [2] worked out at 2.55 nM.

With `Cc1cc2cc(C(=O)N(Cc3ccc(C(F)(F)F)cn3)Cc3ccccc3-n3cccn3)ccc2nc1N` [Example 654, 2-amino-3-methyl-N-[(2-pyrazol-1-ylphenyl)methyl]-N-[[5-(trifluoromethyl)-2-pyridyl]methyl] quinoline-6-carboxamide], in experiment [1], the IC50 worked out at 250 nM. The Ki in experiment [2] is 5.61 nM.

As to `Cc1cc2cc(C(=O)N(Cc3ccc(C(O)C(F)(F)F)cc3)Cc3ccc(C(F)(F)F)cn3)ccc2nc1N` (stereo not drawn) [Example 660, 2-amino-3-methyl-N-[ [4-(2,2,2-trifluoro-1-hydroxyethyl)phenyl]methyl]-N-[[5-(trifluoromethyl)-2-pyridyl]methyl] quinoline-6-carboxamide], the IC50 in experiment [1] amounted to 800 nM. In experiment [2], the Ki came to 7.14 nM.

Turning to `Cc1cc2cc(C(=O)N(Cc3ccc(N4CCCC4)cc3)Cc3ccc(C(F)(F)F)cn3)ccc2nc1N` [Example 646, 2-amino-3-methyl-N-[(4-pyrrolidin-1-ylphenyl)methyl]-N-[[5-(trifluoromethyl)-2-pyridyl]methyl] quinoline-6-carboxamide], the IC50 in experiment [1] turned out to be 850 nM. Further, the Ki in experiment [2] worked out at 6.83 nM.

Consider `CNC(=O)c1ccc(CN(Cc2ccc(C(F)(F)F)cn2)C(=O)c2ccc3nc(N)c(C)cc3c2)cc1` [Example 638, 2-amino-3-methyl-N-[[4-(methylcarbamoyl)phenyl]methyl]-N-[[5-(trifluoromethyl)-2-pyridyl]methyl] quinoline-6-carboxamide], for which, in experiment [1], the IC50 amounted to 200 nM. For the same compound, in experiment [2], the Ki stood at 1.9 nM.

As for `Cc1cc2cc(C(=O)N(Cc3ccc[nH]3)Cc3ccnc4[nH]ccc34)ccc2nc1N` [Example 689, 2-amino-3-methyl-N-(1H-pyrrolo[2,3-b]pyridin-4-ylmethyl)-N-(1H-pyrrol-2-ylmethyl)quinoline-6-carboxamide], in experiment [1], the IC50 turned out to be 330 nM. In addition, the Ki in experiment [2] was found to be 2.94 nM.

Regarding `Cc1cc2cc(C(=O)N(Cc3ccc(C(F)(F)F)cn3)C3CCCc4ncccc43)ccc2nc1N` (stereo not drawn) [Example 667, 2-amino-3-methyl-N-(5,6,7,8-tetrahydroquinolin-5-yl)-N-[[5-(trifluoromethyl)-2-pyridyl]methyl] quinoline-6-carboxamide], in experiment [1], the IC50 came to 24 nM. The Ki in experiment [2] worked out at 3.9 nM.

On to `Cc1cc2cc(C(=O)N(Cc3ccc(C(F)(F)F)cn3)Cc3ccnn3C)ccc2nc1N` [Example 686, 2-amino-3-methyl-N-[(2-methylpyrazol-3-yl)methyl]-N-[[5-(trifluoromethyl)-2-pyridyl]methyl] quinoline-6-carboxamide], for which the IC50 in experiment [1] came out at 590 nM. In experiment [2], the Ki turned out to be 5.12 nM.

In general, IC50 refers to the concentration needed to halve the response being measured. For orientation: Ki means a dissociation constant, usually derived from enzyme kinetics or from competition with a known ligand.
